Data set [1] has as its system Setaria faberi (SETFA). The data set can be described thus: Post-emergence biological efficacy, glasshouse pot test. It is filed as in vivo. Particulars: 312 h, Rate 1,000 g/ha, post-emergence spray, evaluated after 13 days (100=total damage to plant; 0=no damage to plant), read-out: Percentage damage caused to weed species, post-emergence, SETFA. In short, it runs like this:
(§1)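 Pot-grown weeds were sprayed 8 days after sowing with test compound in acetone/water (50:50) with 0.5% Tween 20 at 1000 or 250 g/ha. Glasshouse at 24/16° C day/night, 14 h light, 65% humidity. Damage scored 0-100 (100 = total damage) after 13 days.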

Data set [2] has as its system Solanum nigrum (SOLNI). Described as above. Particulars: 312 h, Rate 1,000 g/ha, post-emergence spray, evaluated after 13 days (100=total damage to plant; 0=no damage to plant), read-out: Percentage damage caused to weed species, post-emergence, SOLNI. It is filed as in vivo. The essentials:
as §1

For data set [3], the system named is Amaranthus retoflexus (AMARE). Described as above. The class given is in vivo. Particulars: Amaranthus retroflexus, 312 h; Rate 1,000 g/ha; post-emergence spray; evaluated after 13 days (100=total damage to plant; 0=no damage to plant); read-out: Percentage damage caused to weed species, post-emergence, AMARE. The essentials: as §1
The subject of data set [4] is Echinochloa crus-galli (ECHCG). The description is as above. It is filed as in vivo. Particulars: 312 h, Rate 1,000 g/ha, post-emergence spray, evaluated after 13 days (100=total damage to plant; 0=no damage to plant), read-out: Percentage damage caused to weed species, post-emergence, ECHCG. The essentials: as §1
Data set [5] concerns Ipomea hederaceae (IPOHE). The description is as above. It is filed as in vivo. Particulars: Ipomoea hederacea, 312 h; Rate 1,000 g/ha; post-emergence spray; evaluated after 13 days (100=total damage to plant; 0=no damage to plant); read-out: Percentage damage caused to weed species, post-emergence, IPOHE. The essentials:
as §1

The test system of data set [6] is Alopecurus myosuroides (ALOMY). The data set is described as above. It is filed as in vivo. Particulars: 312 h, Rate 1,000 g/ha, post-emergence spray, evaluated after 13 days (100=total damage to plant; 0=no damage to plant), read-out: Percentage damage caused to weed species, post-emergence, ALOMY. In short, it runs like this: as §1
Data set [7] has as its system Setaria faberi (SETFA). The experiment in a line: Pre-emergence biological efficacy, glasshouse pot test. It is filed as in vivo. Particulars: 312 h, pre-emergence, rate 1,000 g/ha, evaluated after 13 days (100=total damage to plant; 0=no damage), read-out: Percentage damage caused to weed species, SETFA. The essentials: (§2)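 One day after sowing in standard soil, pots were sprayed with compound in acetone/water (50:50) with 0.5% Tween 20, at 1000 or 250 g/ha. Plants grew at 24/16° C day/night, 14 h light, 65% humidity. Damage was scored after 13 days (0 = none, 100 = total).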

The test system of data set [8] is Solanum nigrum (SOLNI). Described as above. It is filed as in vivo. Particulars: 312 h, pre-emergence, rate 1,000 g/ha, evaluated after 13 days (100=total damage to plant; 0=no damage), read-out: Percentage damage caused to weed species, SOLNI. In short, it runs like this: as §2
For data set [9], the system named is Amaranthus retoflexus (AMARE). Described as above. The class given is in vivo. Particulars: Amaranthus retroflexus, 312 h; pre-emergence, rate 1,000 g/ha, evaluated after 13 days (100=total damage to plant; 0=no damage); read-out: Percentage damage caused to weed species, AMARE. The essentials: as §2
The subject of data set [10] is Echinochloa crus-galli (ECHCG). The description is as above. It is filed as in vivo. Particulars: 312 h, pre-emergence, rate 1,000 g/ha, evaluated after 13 days (100=total damage to plant; 0=no damage), read-out: Percentage damage caused to weed species, ECHCG. In short, it runs like this:
as §2

The test system of data set [11] is Ipomea hederaceae (IPOHE). Described as above. It is filed as in vivo. Particulars: Ipomoea hederacea, 312 h; pre-emergence, rate 1,000 g/ha, evaluated after 13 days (100=total damage to plant; 0=no damage); read-out: Percentage damage caused to weed species, IPOHE. The essentials: as §2
Data set [12] has as its system Alopecurus myosuroides (ALOMY). Described as above. It is filed as in vivo. Particulars: 312 h, pre-emergence, rate 1,000 g/ha, evaluated after 13 days (100=total damage to plant; 0=no damage), read-out: Percentage damage caused to weed species, ALOMY. The essentials: as §2

SMILES strings stand for the structures.

A word on the melting point: it is the temperature, or range, at which the solid turns liquid. As to `NC(=O)c1nc(C2CC2)nc(NCc2ccco2)c1Cl` [Compound 201-125, 6-aminocarbonyl-5-chloro-2-cyclopropyl-4-(furan-2-ylmethylamino)-pyrimidine], the melting point fell in the range of 126 to 128 °C. Also, the pest or weed control at 1000 g/ha in data set [1] came out at 50%. Besides, in [2], the pest or weed control at 1000 g/ha was 90%. Moreover, the pest or weed control at 1000 g/ha in data set [3] is 90%. Further, in data set [4], the pest or weed control at 1000 g/ha was 20%. The pest or weed control at 1000 g/ha in data set [5] was determined as 70%. The pest or weed control at 1000 g/ha in data set [6] amounted to 20%. Moreover, the pest or weed control at 1000 g/ha in data set [7] is 0%. The pest or weed control at 1000 g/ha in [8] amounted to 70%. For the same compound, the pest or weed control at 1000 g/ha in data set [9] is 70%. Also, the pest or weed control at 1000 g/ha in [10] is 0%. The pest or weed control at 1000 g/ha in data set [11] is 40%. Besides, the pest or weed control at 1000 g/ha in data set [12] stood at 20%.

In turn, `COC(=O)c1nc(Cl)nc(NCc2ccco2)c1Cl` [Compound 207-48, 2,5-dichloro-4-(furan-2-ylmethylamino)-6-methoxy carbonylpyrimidine] yielded a melting point of 110 to 112 °C. For the same compound, in data set [1], the pest or weed control at 1000 g/ha amounted to 10%. Also, the pest or weed control at 1000 g/ha in data set [2] was 60%. For the same compound, the pest or weed control at 1000 g/ha in data set [3] came to 30%. In addition, the pest or weed control at 1000 g/ha in [4] came out at 10%. The pest or weed control at 1000 g/ha in data set [5] is 30%. The pest or weed control at 1000 g/ha in data set [6] came to 10%. Further, the pest or weed control at 1000 g/ha in data set [7] turned out to be 20%. Besides, the pest or weed control at 1000 g/ha in data set [8] worked out at 40%. For the same compound, the pest or weed control at 1000 g/ha in data set [9] stood at 30%. The pest or weed control at 1000 g/ha in [10] came to 10%. In data set [11], the pest or weed control at 1000 g/ha is 40%. In addition, in data set [12], the pest or weed control at 1000 g/ha was determined as 20%.

For the origin of these results see patent publication US20110086759A1, “CHEMICAL COMPOUNDS” (SYNGENTA CROP PROTECTION, INC., priority 2007, published 2011).
